From ChEMBL document CHEMBL1158971, “Aromatic Secondary Metabolites from the Sponge Tedania ignis” (J Nat Prod, 1991)

Experiments:
[1] = Toxicity against brine shrimp assessed as mortality at 25 ppm after 4 hrs; assay type: organism-based; conditions: artemia, in vivo; read-out: Activity
[2] = Toxicity against brine shrimp assessed as mortality at 25 ppm after 6 hrs; assay type: organism-based; conditions: artemia, in vivo; read-out: Activity
[3] = Toxicity against brine shrimp assessed as mortality at 25 ppm after 8 hrs; assay type: organism-based; conditions: artemia, in vivo; read-out: Activity
[4] = Toxicity against brine shrimp assessed as mortality at 25 ppm after 24 hrs; assay type: organism-based; conditions: artemia, in vivo; read-out: Activity
Artemia = test: Toxicity against brine shrimp assessed as mortality at 25 ppm; assay type: organism-based; conditions: in vivo
Euphorbia esula = test: Phytotoxicity against Euphorbia esula assessed as necrotic lesions at 5 ug by nicked leaf assay; assay type: functional

CC(=O)c1nccc2c1[nH]c1ccccc12
mortality at 4 h, 25 ppm [1]: 14%
mortality at 6 h, 25 ppm [2]: 21%
mortality at 8 h, 25 ppm [3]: 43%
mortality at 24 h, 25 ppm [4]: 100%

NC(=O)Cc1ccccc1
Activity (Artemia): Not Active

Cc1cccc2c1[nH]c1ccccc12
mortality at 4 h, 25 ppm [1]: 82%
mortality at 6 h, 25 ppm [2]: 100%

CC(=O)/C=C/c1c[nH]c2ccccc12
mortality at 4 h, 25 ppm [1]: 0%
mortality at 6 h, 25 ppm [2]: 0%
mortality at 8 h, 25 ppm [3]: 8%
mortality at 24 h, 25 ppm [4]: 39%

CC(=O)/C=C/Cc1c[nH]c2ccccc12
mortality at 4 h, 25 ppm [1]: 0%
mortality at 6 h, 25 ppm [2]: 0%
mortality at 8 h, 25 ppm [3]: 27%
mortality at 24 h, 25 ppm [4]: 91%
Activity (Euphorbia esula): 2 mm

CC(=O)/C=C/c1ccc(C)c(C)c1C
mortality at 4 h, 25 ppm [1]: 0%
mortality at 6 h, 25 ppm [2]: 50%
mortality at 8 h, 25 ppm [3]: 90%
mortality at 24 h, 25 ppm [4]: 100%

CC(=O)/C=C/C(C)=C(\C)c1c[nH]c2ccccc12
mortality at 4 h, 25 ppm [1]: 20%
mortality at 6 h, 25 ppm [2]: 20%
mortality at 8 h, 25 ppm [3]: 20%
mortality at 24 h, 25 ppm [4]: 70%

O=C(CO)c1c[nH]c2ccccc12
Activity (Artemia): Not Active
